Results: patent US7855290B2, “Pyridine derivatives and pyrimidine derivatives (3)” (Eisai R&D Management Co., Ltd., priority 2005, dated 2010)

Assays:
[1] = biological target: T1, His6-HGFR (HGFR cytoplasmic domain) (Homo sapiens, UniProt P08581); test: Inhibitory activity against HGFR tyrosine kinase activity (HTRF); type: biochemical; details: biotin-poly(GT), ATP, 30° C. 10 min
T1 construct: made in house; host or cells: Sf9 insect cells (Spodoptera frugiperda), baculovirus, pFastBac-HT vector
T1 sequence (P08581 956-1390 limits assumed): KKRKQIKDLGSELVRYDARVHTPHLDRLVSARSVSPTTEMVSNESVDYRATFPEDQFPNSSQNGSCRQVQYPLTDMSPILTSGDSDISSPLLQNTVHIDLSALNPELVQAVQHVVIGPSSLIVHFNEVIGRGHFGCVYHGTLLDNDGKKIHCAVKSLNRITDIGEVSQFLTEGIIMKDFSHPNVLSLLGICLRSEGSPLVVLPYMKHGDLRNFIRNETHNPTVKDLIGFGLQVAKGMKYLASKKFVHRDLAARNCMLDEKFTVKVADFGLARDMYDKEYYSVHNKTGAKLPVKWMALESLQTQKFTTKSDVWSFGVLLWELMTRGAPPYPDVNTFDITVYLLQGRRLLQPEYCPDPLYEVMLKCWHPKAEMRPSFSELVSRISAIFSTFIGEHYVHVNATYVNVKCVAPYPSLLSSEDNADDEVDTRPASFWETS
Outline: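 Sf9-expressed, Ni-NTA-purified N-terminal His6-tagged HGFR cytoplasmic domain (from Lys974), 30 ng, phosphorylates 250 ng biotin-poly(GT) in Hepes pH 7.4 with MgCl2, MnCl2 and Na3VO4. Reaction started with 4 μM ATP stock, run 10 min at 30° C, stopped with EDTA. Phosphotyrosine is detected by HTRF.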

[2] = system: Human gastric cancer cells (MKN-45); test: Inhibitory activity against the proliferation of human gastric cancer cells (MKN-45); type: cell-based; details: 72 h, MKN-45, 1% FBS RPMI1640, 3 days, Cell Counting Kit-8
Outline: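 MKN-45 cells seeded overnight in RPMI1640 with 1% FBS, then exposed to compound for 3 days at 37° C, 5% CO2. Viability read with CCK-8 after about 1.5 hrs, absorbance at 450 nm (reference 660 nm).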

| SMILES | IC50 [1] | IC50 [2] |
| --- | --- | --- |
| O=C(Nc1cc(Oc2ccc(NC(=O)C3(C(=O)Nc4ccc(F)cc4)CC3)cc2)ccn1)N1CCC(N2CCC2)CC1 [Example 13, N-{4-[(2-{[(4-Azetidin-1-ylpiperidin-1-yl)carbonyl]amino}pyridin-4-yl)oxy]phenyl}-N′-(4-fluorophenyl)cyclopropane-1,1-dicarboxamide] | 55 nM | 76 nM |
| O=C(Nc1cc(Oc2ccc(NC(=O)C3(C(=O)Nc4ccc(F)cc4)CC3)c(F)c2)ccn1)N1CC(CO)C1 [Example 75] | 10 nM | 19 nM |
| O=C(Nc1cc(Oc2ccc(NC(=O)C3(C(=O)Nc4ccc(F)cc4)CC3)c(F)c2)ccn1)N1CCC(CN2CCC2)CC1 [Example 37, N-(4-{[2-({[4-(Azetidin-1-ylmethyl)piperidin-1-yl]carbonyl}amino)pyridin-4-yl]oxy}-2-fluorophenyl)-N′-(4-fluorophenyl)cyclopropane-1,1-dicarboxamide] | 53 nM | 14 nM |
| O=C(Nc1cc(Oc2ccc(NC(=O)C3(C(=O)Nc4ccc(F)cc4)CC3)cc2)ccn1)N1CCCC1 [Example 69, N-(4-Fluorophenyl)-N′-[4-({2-[(pyrrolidin-1-ylcarbonyl)amino]pyridin-4-yl}oxy)phenyl]cyclopropane-1,1-dicarboxamide] | 31 nM | 77 nM |
| O=C(Nc1cc(Oc2ccc(NC(=O)C3(C(=O)Nc4ccc(F)cc4)CC3)cc2)ccn1)N1CCC1 [Example 70, N-[4-({2-[(Azetidin-1-ylcarbonyl)amino]pyridin-4-yl}oxy)phenyl]-N′-(4-fluorophenyl)cyclopropane-1,1-dicarboxamide] | 19 nM | 54 nM |
| O=C(Nc1cc(Oc2ccc(NC(=O)C3(C(=O)Nc4ccc(F)cc4)CC3)cc2F)ccn1)N1CCC(N2CCC2)CC1 [Example 11, N-{4-[(2-{[(4-Azetidin-1-ylpiperidin-1-yl)carbonyl]amino}pyridin-4-yl)oxy]-3-fluorophenyl}-N′-(4-fluorophenyl)cyclopropane-1,1-dicarboxamide] | 46 nM | 34 nM |
| CN1CCC(N(C)C(=O)Nc2cc(Oc3ccc(NC(=O)C4(C(=O)Nc5ccc(F)cc5)CC4)c(F)c3)ccn2)CC1 [Example 3, N-(2-Fluoro-4-{[2-({[methyl(1-methylpiperidin-4-yl)amino]carbonyl}amino)pyridin-4-yl]oxy}phenyl)-N′-(4-fluorophenyl)cyclopropane-1,1-dicarboxamide] | 39 nM | 15 nM |
| O=C(Nc1cc(Oc2ccc(NC(=O)C3(C(=O)Nc4ccc(F)cc4)CC3)cc2F)ccn1)N1CCC1 [Example 65, N-[4-({2-[(Azetidin-1-ylcarbonyl)amino]pyridin-4-yl}oxy)-3-fluorophenyl]-N′-(4-fluorophenyl)cyclopropane-1,1-dicarboxamide] | 15 nM | 23 nM |
| O=C(Nc1cc(Oc2ccc(NC(=O)C3(C(=O)Nc4ccc(F)cc4)CC3)cc2F)ccn1)N1CCC(N2CCCC2)CC1 [Example 10, N-(4-Fluorophenyl)-N′-{3-fluoro-4-[(2-{[(4-pyrrolidin-1-ylpiperidin-1-yl)carbonyl]amino}pyridin-4-yl)oxy]phenyl}cyclopropane-1,1-dicarboxamide] | 54 nM | 42 nM |
| CN(C)CCN1CCN(C(=O)Nc2cc(Oc3ccc(NC(=O)C4(C(=O)Nc5ccc(F)cc5)CC4)cc3F)ccn2)CC1 [Example 7, N-[4-({2-[({4-[2-(Dimethylamino)ethyl]piperazin-1-yl}carbonyl)amino]pyridin-4-yl}oxy)-3-fluorophenyl]-N′-(4-fluorophenyl)cyclopropane-1,1-dicarboxamide] | 51 nM | 18 nM |
| CN1CCC(N(C)C(=O)Nc2cc(Oc3ccc(NC(=O)C4(C(=O)Nc5ccc(F)cc5)CC4)cc3F)ncn2)CC1 [Example 33, N-(3-Fluoro-4-{[6-({[methyl(1-methylpiperidin-4-yl)amino]carbonyl}amino)pyrimidin-4-yl]oxy}phenyl)-N′-(4-fluorophenyl)cyclopropane-1,1-dicarboxamide] | 26 nM | 55 nM |
| O=C(Nc1cc(Oc2cc(F)c(NC(=O)C3(C(=O)Nc4ccc(F)cc4)CC3)cc2F)ccn1)N1CCC(O)CC1 [Example 105] | 15 nM | 4.1 nM |
| CN(C)[C@@H]1CCN(C(=O)Nc2cc(Oc3ccc(NC(=O)C4(C(=O)Nc5ccc(F)cc5)CC4)c(F)c3)ccn2)C1 [Example 47, N-(4-{[2-({[(3R)-3-(Dimethylamino)pyrrolidin-1-yl]carbonyl}amino)pyridin-4-yl]oxy}-2-fluorophenyl)-N′-(4-fluorophenyl)cyclopropane-1,1-dicarboxamide] | 83 nM | 27 nM |
| O=C(Nc1cc(Oc2ccc(NC(=O)C3(C(=O)Nc4ccc(F)cc4)CC3)c(F)c2F)ccn1)N1CC(O)C1 [Example 106, N-[2,3-Difluoro-4-[(2-{[(3-hydroxyazetidin-1-yl)carbonyl]amino}pyridin-4-yl)oxy]phenyl}-N′-(4-fluorophenyl)cyclopropane-1,1-dicarboxamide] | 16 nM | 46 nM |
| O=C(Nc1cc(Oc2ccc(NC(=O)C3(C(=O)Nc4ccc(F)cc4)CC3)c(F)c2)ccn1)N1CCC1 [Example 61, N-[4-({2-[(Azetidin-1-ylcarbonyl)amino]pyridin-4-yl]oxy}-2-fluorophenyl]-N′-(4-fluorophenyl)cyclopropane-1,1-dicarboxamide] | 15 nM | 15 nM |
| CN1CCC(N2CCN(C(=O)Nc3cc(Oc4ccc(NC(=O)C5(C(=O)Nc6ccc(F)cc6)CC5)cc4)ccn3)CC2)CC1 [Example 31, N-(4-Fluorophenyl)-N′-(4-{[2-({[4-(1-methylpiperidin-4-yl)piperazin-1-yl]carbonyl}amino)pyridin-4-yl]oxy}phenyl)cyclopropane-1,1-dicarboxamide] | 62 nM | 31 nM |
| CN1CCC(N2CCN(C(=O)Nc3cc(Oc4ccc(NC(=O)C5(C(=O)Nc6ccc(F)cc6)CC5)c(F)c4)ccn3)CC2)CC1 [Example 16, N-(2-Fluoro-4-{[2-({[4-(1-methylpiperidin-4-yl)piperazin-1-yl]carbonyl}amino)pyridin-4-yl]oxy}phenyl)-N′-(4-fluorophenyl)cyclopropane-1,1-dicarboxamide] | 64 nM | 17 nM |
| O=C(Nc1cc(Oc2ccc(NC(=O)C3(C(=O)Nc4ccc(F)cc4)CC3)cc2)ccn1)N1CCN(CCN2CCC2)CC1 [Example 28, N-(4-{[2-({[4-(2-Azetidin-1-ylethyl)piperazin-1-yl]carbonyl}amino)pyridin-4-yl]oxy}phenyl)-N′-(4-fluorophenyl)cyclopropane-1,1-dicarboxamide] | 72 nM | 54 nM |
| CN(C)[C@H]1CCN(C(=O)Nc2cc(Oc3ccc(NC(=O)C4(C(=O)Nc5ccccc5)CC4)c(F)c3)ccn2)C1 [Example 58, N-(4-{[2-({[(3S)-3-(Dimethylamino)pyrrolidin-1-yl]carbonyl}amino)pyridin-4-yl]oxy}-2-fluorophenyl)-N′-phenylcyclopropane-1,1-dicarboxamide] | 85 nM | 25 nM |
| CN1CCC(N(C)C(=O)Nc2cc(Oc3ccc(NC(=O)C4(C(=O)Nc5ccc(F)cc5)CC4)cc3)ccn2)CC1 [Example 12] | 37 nM | 31 nM |
